Melting point data for 90 compounds are collected here from a melting point compilation (Tetko et al.; mined from patent text by program, amines drawn as free bases though some values may be those of a salt).

The structures appear in SMILES notation. A value given as a limit tells only on which side of the number the result lay.

As usually defined, the melting point is the temperature, or range, at which the solid turns liquid.

`FC(F)C(F)(F)Sc1nc(-c2ccccc2)c(-c2cccnc2)[nH]1` returned a melting point of 153 to 154 °C.

`CC1(C)NC(=O)CN1C(=O)CCl` gave a melting point of 151 to 153 °C.

Regarding `CCC(=O)C(=CN(C)C)Oc1cc(Cl)cc(Cl)c1`, the melting point lay in the range of 96 to 97 °C.

In turn, `N#CC1=C(C#N)Sc2nc3cc(C(F)(F)F)ccc3nc2S1` returned a melting point of 197 to 199 °C.

For `Cc1ccc(-c2ccc(N3CCCN(c4ccc(-c5ccc(C)cc5)cn4)CC3)nc2)cc1`, the melting point is 245 to 247 °C.

`CCCCCCCCCCC[C@@H](O)CCO` showed a melting point of 59 to 60 °C.

`CC(C)(O)c1ccc(CC(=O)Nc2cccnc2Oc2cccc(C#N)c2)cc1` displayed a melting point of 97 to 99 °C.

In turn, `CCCc1[nH]c2ccc(OC)cc2c1C=O` gave a melting point of 166 to 168 °C.

In the case of `Cc1oc(-c2ccccc2)nc1CCOc1ccc(CC#N)cc1`, the melting point lay within 109 to 110 °C.

`CCC(C)(C)c1cc(-c2cccc(CC3SC(N4CCOCC4)=NC3=O)n2)ccc1O` (stereo not given) displayed a melting point of 240 to 242 °C.

With `O=C(O)[C@H](Cc1cccc(OC(F)(F)C(F)F)c1)[C@@H](O)c1ccc(Oc2ccccc2)cc1` (racemic), the melting point was in the range of 109 to 110 °C.

For `CC(=O)NNc1c(C)cnc2c(NC(=O)c3c(Cl)cccc3Cl)ccc(C)c12`, the melting point lay in the range of 234 to 238 °C.

With `O=C(Oc1ccccc1)N1C(C2=COc3ccccc3O2)=COc2cccnc21`, the melting point came to 142 °C.

As to `NC(=O)c1nccc(Cl)c1Cl`, the melting point lay in the range of 174 to 175 °C.

As to `CC(=O)NCC1CN(c2ccc(N3CCC(O)(C(C#N)C4CC4)CC3)c(F)c2)C(=O)O1` (stereo not given), the melting point is 170 to 172 °C.

For the compound `CN(c1cc(OC(F)(F)F)cc2cc(C3=NCC(CN4CCOCC4)S3)[nH]c12)S(=O)(=O)c1cccs1` (stereo not given), the melting point was in the range of 165 to 166 °C.

`COc1ccc(C(=O)C=Cc2cccc(N(C)C)c2)c(OC)c1OC`: the melting point lay in the range of 87.2 to 87.9 °C.

With `CCOP(=O)(OCC)C(C)Oc1cc(-n2c(=O)cc(C(F)(F)F)n(C)c2=O)c(F)cc1Cl` (stereo not given), the melting point worked out at 103 °C.

For the compound `COc1ccc(Oc2cccc(C3C4=C(CC(C)(C)CC4=O)NC4=C3C(=O)CC(C)(C)C4)c2)cc1`, the melting point was in the range of 210 to 212 °C.

With `O=C(O)c1cc2cc(OCc3ccccc3)ccc2cc1OCc1ccccc1`, the melting point is 163 to 165 °C.

For the compound `COc1ccccc1C(=NO)c1sccc1Br`, the melting point lay within 129 to 130 °C.

`O=C(O)C1(C(F)F)c2ccccc2Oc2ccccc21`: the melting point is 181 to 182 °C.

Consider `C=CCc1c2c(cc3c(=O)cc(C(=O)O)oc13)CCCC2`, for which the melting point is 235 to 237 °C.

In the case of `CCCCCCNc1ccc(OC2CCN(C(=O)OC(C)(C)C)CC2)cc1`, the melting point was 46 to 47 °C.

Regarding `Cc1nc2cc(Cl)c(Cl)cc2n1C1CC(CO)C(O)C1O` (stereo not given), the melting point fell in the range of 198 to 200 °C.

With `CC(C)Nc1cc(=O)n(-c2ccccc2)nc1-c1nc[nH]n1`, the melting point lay in the range of 203 to 205 °C.

For the compound `NC(=NO)C1CCN(C(=O)OCc2ccccc2)CC1`, the melting point was in the range of 111 to 113 °C.

On to `COc1cc(OC)c(C)c(C(=O)NCC23CC4CC(CC(Cl)(C4)C2)C3)c1`, for which the melting point lay within 173 to 175 °C.

On to `CCOC(=O)Nc1[nH]c2ccc(Sc3ccccc3)cc2c1C#N`, for which the melting point fell in the range of 181 to 182 °C.

Compound `CC1=C(c2ccncc2)SCC(=O)N1C` showed a melting point of 139 to 140 °C.

In the case of `COc1ccc(C=CC2=NN=C(C)Cc3cc(OC)c(OC)cc32)c(OC)c1`, the melting point was 148 to 150 °C.

In the case of `Cc1cc(=O)c2ccc(OCCCCl)cc2o1`, the melting point lay in the range of 113 to 115 °C.

`CC(=O)c1sc(-c2ccncc2)c(-c2ccncc2)c1C`: the melting point is 140 to 142 °C.

Consider `CC(C)(C)c1cc(C(C)(C)C)c(O)c(C(=O)Nc2ccc(S(=O)(=O)C(F)(F)F)cc2Cl)c1O`, for which the melting point fell in the range of 149 to 150 °C.

As to `COc1ccc(N2C(=O)C(O[Si](C(C)C)(C(C)C)C(C)C)C2c2ccc(F)cc2)cc1` (stereo not given), the melting point lay within 121 to 122 °C.

For `O=c1ccsc2c1[nH]c1ccc(Br)cc12`, the melting point lay in the range of 334 to 337 °C.

In the case of `CCCCCCCCCCC(=O)OC1CC(C)(C)N(CC#N)C(C)(C)C1`, the melting point was 54 °C.

Compound `Cc1ccc(-c2c3ccccc3nc3ccc(N(S(C)(=O)=O)S(C)(=O)=O)cc23)cc1` yielded a melting point of 217 to 219 °C.

For `COc1cc(C=NO)c2oc(-c3ccc(OC)c(F)c3)cc2c1`, the melting point was in the range of 208 to 210 °C.

`O=C(Nc1nc(C(F)(F)F)c(I)s1)c1cc(C(F)(F)F)cc(C(F)(F)F)c1` registered a melting point of 172 to 173 °C.

Regarding `CC#CC(C)(C)NC(=O)C(Br)CC` (stereo not given), the melting point lay within 79 to 81 °C.

In turn, `O=C(COc1cccnc1)C12CC3CC(CC(C3)C1)C2` came in with a melting point of 73 to 75 °C.

`CCCN1c2ccccc2N(C)C(=O)c2cccnc21` returned a melting point of 96 to 98 °C.

Turning to `Cc1c(C(F)(F)F)cnn(-c2cc(OCCC3OCCCO3)c(Cl)cc2F)c1=O`, the melting point was 112 °C.

`CC1(C)OC(=O)Nc2ccc(-c3cc(C#N)cs3)cc21` gave a melting point of 255 to 260 °C.

As for `C#CCOC(=O)c1ccc2ccccc2c1`, the melting point lay in the range of 68 to 70 °C.

On to `COC1=C(OC)C(=O)C2=C(CC(CCCCCCCCOc3ccc(Cl)cc3)C2)C1=O`, for which the melting point fell in the range of 64 to 66 °C.

`NCC(CC(=O)O)c1ccc(Cl)c(Cl)c1` (stereo not given) registered a melting point of 202 to 204 °C.

In turn, `COc1cc(Cl)c([N+](=O)[O-])cc1OC` yielded a melting point of 103 to 105 °C.

As for `COc1cc(C(=O)N2CCC(CCN3CCC(C(=O)c4nc5ccccc5n4Cc4ccc(F)cc4)CC3)(c3ccc(F)cc3F)C2)cc(OC)c1OC` (stereo not given), the melting point fell in the range of 58 to 60 °C.

`O=C1c2cccc3cc(OCCO)cc(c23)C(=O)N1O` had a melting point of 242 to 244 °C.

As to `CN(C)C(=S)SSCCSSC(=S)N(C)C`, the melting point was in the range of 142 to 143 °C.

On to `COc1cn(-c2cc3c(cc2F)OC(F)(F)O3)nc(-c2ccnn2-c2ccccc2)c1=O`, for which the melting point lay within 200 to 202 °C.

The compound `O=C(O)C1(c2ccco2)CC1` showed a melting point of 113 to 114 °C.

`CCC(=O)NCCc1ccc(OCc2ccccc2)c(OCc2ccccc2)c1CC`: the melting point was 159 to 160 °C.

On to `Cn1nc2ccccc2c1C(=O)NCCCN1CCC(c2ccc(F)cc2)CC1`, for which the melting point lay within 136 to 140 °C.

As for `COc1nc(C(=O)NC(C)(C)C)c(C(=O)O)s1`, the melting point lay within 120 to 122 °C.

`O=C(O)COc1cccc(-c2ccccc2OC2OC(CO)C(O)C(O)C2O)c1` (stereo not given) came in with a melting point of 58 to 60 °C.

Take `Cc1ccc(-c2ccc(C(=O)Nc3ccc4nc(CN5CCCC5)ccc4c3)cc2)cc1`: the melting point fell in the range of 192 to 193 °C.

`C=C(COC)c1ccc(NC(=O)N(C)C)cc1` displayed a melting point of 96 to 97 °C.

For `CS(=O)(=O)NCCCCn1c(CC2CC2)nc2c(N)nc3ccccc3c21`, the melting point was 200 to 201 °C.

`CN1CCN(c2ccc(C(=O)N[C@H]3CC[C@H](CCN4CCN(c5nccc6c5CCO6)CC4)CC3)cc2)CC1` gave a melting point of 236 °C.

Compound `CCCCCCCNCc1cccc(OCCCNc2nc(N)nn2C)c1` came in with a melting point of 64 to 65 °C.

Compound `CCOC(=O)C1=C(N)NC2=C(C(=O)CCC2)C1C` (stereo not given) came in with a melting point of 236 °C.

Take `N#Cc1cc(-c2nccs2)nn1-c1ccc(NC(=O)c2ccncc2F)cc1`: the melting point was 210 to 211 °C.

On to `COCc1nc2c(NC(=O)C(C)(C)C)cccn2c1C`, for which the melting point turned out to be 104 °C.

Turning to `O=C(O)c1ccccc1-c1cc(-c2ccc(O)cc2)[nH]n1`, the melting point was in the range of 260 to 264 °C.

Consider `COc1cc(C(C)C)ccc1C1(NC(=O)C2CC2)C(=O)c2ccccc2C1=O`, for which the melting point lay within 145 to 147 °C.

`CC(=O)C(=[N+]=[N-])C(=O)NCCO` had a melting point of 69 to 70 °C.

In turn, `O=C(O)c1ccc(OCCCN(CCO)c2ccc(Cl)cc2)cc1` gave a melting point of 120 to 122 °C.

In turn, `Cc1c(Cc2cccnc2)sc2ccc(C(=O)O)cc12` displayed a melting point of 230 to 232 °C.

The compound `O=C1CCN(Cc2ccccc2)CC1C1c2ccccc2C=Cc2ccccc21` (stereo not given) gave a melting point of 167 to 169 °C.

`CCN(CC)CCOc1ccc(Nc2ncc3c(n2)N(C)C(=O)N(c2ccccc2)C3)cc1` had a melting point of 141 to 144 °C.

The compound `CCOC(=O)CCCCn1c(C(=O)OCC)cc2c(Cl)cc(O)cc21` yielded a melting point of 74 to 76 °C.

Consider `CN(C)CCN(C1CCS(=O)(=O)C1)S(=O)(=O)c1ccc(Nc2nccc(Nc3ccc(F)cc3)n2)cc1` (stereo not given), for which the melting point fell in the range of 162 to 165 °C.

`CC1Cc2c(c(Cl)cc(F)c2N2C(=O)c3ccccc3C2=O)O1` (stereo not given) had a melting point of 158 to 160 °C.

The compound `COC(=O)c1cc(C(C)=O)c(C(F)(F)F)cc1N` gave a melting point of 118 to 121 °C.

`C=Cc1ccc(S(=O)(=O)On2nnc3ccc(C=C)cc32)cc1` registered a melting point of 85 to 87 °C.

Consider `CCNC(=O)CC(c1ccc(OC)c(OC)c1)N1C(=O)c2ccccc2C1=O` (stereo not given), for which the melting point is 131 to 132 °C.

Consider `COC(=O)CC(=O)NCc1cc(Br)cc2[nH]c(=O)c(=O)[nH]c12`, for which the melting point is above 300 °C.

With `O=C(Nc1ccc2cc(CN3CCCC3)ccc2c1)c1ccc(-c2ccc(F)cc2)nc1`, the melting point was in the range of 238 to 240 °C.

`CCOc1cccc(-c2nc(-c3ccccc3COC(=O)OCc3ccccc3-c3n[nH]c(-c4cccc(OCC)c4)n3)n[nH]2)c1` gave a melting point of 143 to 145 °C.

`CCn1c2ccc(C(=O)CCCCl)cc2c2cc(C(=O)CCCCl)ccc21`: the melting point lay within 106 to 108 °C.

In the case of `CC12CCC3c4ccc(C(=O)O)cc4CCC3C1CCC2C(=O)c1cc(F)cc(F)c1` (stereo not given), the melting point was in the range of 258 to 261 °C.

`CC(Br)c1cc2ccccc2s1` (stereo not given) had a melting point of 53 °C.

As for `Cc1ccc(COc2ccc(CC(NC(=O)c3cc4cc(-c5ccc(Cl)cc5)ccc4s3)C(=O)O)cc2)cc1` (stereo not given), the melting point was 208 °C.

`NCc1ccc(C2CCN(c3nc4c(cc3F)c(=O)c(C(=O)O)cn4C3CC3)C2)cc1` (stereo not given): the melting point lay in the range of 268 to 272 °C.

In turn, `CC(c1ccc(COCc2ccccc2)o1)N(O)C(N)=O` (stereo not given) gave a melting point of 121 °C.

With `O=C(COc1ccc([N+](=O)[O-])cc1)OCCO`, the melting point lay in the range of 73.5 to 75.5 °C.

For the compound `COc1ccc2c(=O)c(N)coc2c1`, the melting point was in the range of 143 to 146 °C.
